In patent US20090042874A1, “ANTIDEPRESSANT HETEROARYL DERIVATIVES OF HETEROCYCLE-FUSED BENZODIOXANS” (WYETH, priority 2007, published 2009):
Where a name gives a salt, the structure may show the parent alone. Read-outs that look alike come from different tables or passages of the source.

Experiments:
[1] = target: T1, h-5HT1A (Homo sapiens, UniProt P08908); experiment: 5HT1A receptor SPA binding assay, [3H]-OH DPAT, CHO cell membranes; conditions: [3H]-OH DPAT 3 nM
T1 construct: expressed in transfected cells; host or cells: CHO cells grown in suspension in a 10 liter bioreactor
T1 sequence (P08908 1-422): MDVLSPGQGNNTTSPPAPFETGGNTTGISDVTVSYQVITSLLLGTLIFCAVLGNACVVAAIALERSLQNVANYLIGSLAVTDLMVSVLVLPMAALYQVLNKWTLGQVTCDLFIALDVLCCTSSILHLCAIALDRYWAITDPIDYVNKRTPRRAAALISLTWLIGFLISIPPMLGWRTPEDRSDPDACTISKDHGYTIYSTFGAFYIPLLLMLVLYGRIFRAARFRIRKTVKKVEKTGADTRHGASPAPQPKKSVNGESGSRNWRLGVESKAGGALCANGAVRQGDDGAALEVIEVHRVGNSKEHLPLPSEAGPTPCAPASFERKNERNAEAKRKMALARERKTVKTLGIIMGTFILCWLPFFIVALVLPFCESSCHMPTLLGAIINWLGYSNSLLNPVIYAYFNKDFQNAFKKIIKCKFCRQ
Procedure: Determination of the Inhibitory Activity of Compounds at the Serotonin 5HT1A Receptor Subtype using Scintillation Proximity Assay (SPA) Technology
Cells: CHO cells expressing the serotonin 5HT1A receptor subtype were grown in suspension in 10 liter bioreactor and supplied as a wet cell pellet
Binding experiments are performed in a total volume of 200 μl using a 96 well microtiter plate format (Packard Optiplate). On the day of the assay, the membranes are thawed and resuspended with enough 50 mM Tris (HCI) pH 7.5, 10 mM MgCl2, 0.2 mM EDTA, 10 μM pargyline, and 0.1% ascorbate (assay buffer) to achieve a protein concentration of 800 μg/ml. To each well of the microtiter plate, 20 μl of 10× test compound in water containing 3.3% DMSO, 3 nM of [3H]-OH DPAT (Amersham, SA: 200 Ci/mmol), 80 μg cell membrane and assay buffer are combined to achieve a volume of 150 μl. Assay buffer and 10 μM cold 5-HT are substituted for the test compound in separate wells to define ‘total’ and ‘nonspecific’ bindings, respectively. The incubation period is initiated by the addition of 50 μl of 10 mg/ml PVT WGA SPA beads (RPNQ0060, Amersham GE Healthcare) resuspended in assay buffer for a final concentration of 0.5 mg/well. The plates are sealed and gently shaken at room temperature using an orbital shaker (setting 1.5) until equilibrium is achieved (2 h-overnight incubation). Radioactivity (CPM) is measured by Packard TopCount (1 min counting time/well).
Specific binding is described as the total radioactivity bound less the amount bound in the presence of 10 μM 5HT, referred to as non-specific binding (NSB). Binding in the presence of varying concentrations of test compounds is expressed as percent of specific binding in the absence of compound.
{(Bound−NSB)/(Total−NSB)}×100=% Total
Regression analysis of % bound data from ten concentrations is performed in GraphPad Prism, XL Fit or equivalent software. IC50 values are calculated using a four-parameter logistic curve fitting model and Ki values are calculated by the Cheng-Prusoff equation below: […]
where L is the nM concentration of the radioactive ligand used and the Kd is the dissociation constant of the ligand for the receptor. The Kd for [3H-OH DPAT in the SPA binding format is 3 nM. • Single dose
Percent inhibition: The displacement of […] by the test compound at h5-HT1A as determined by: [(Total DPM−compound DPM)/(Total DPM−NSB DPM)]×100. • Conc.: concentration of test compound; NBS: non-specific binding; DPM: disintegrations per min

[2] = target: T2, Human Serotonin Transporter (h5HT-T) (Homo sapiens, UniProt P31645); conditions: read-out: human SERT SPA binding assay Ki
Procedure: (§1) MEDIA REAGENTS: Dulbecco's Modified Eagle Medium (DMEM) with High Glucose, L-Glutamine, 110 mg/L Sodium Pyruvate, Pyridoxine Hydrochloride containing: • a) 10% Fetal Bovine Serum, Heat-inactivated and Dialyzed (10,000 Mol Wt.) • b) 1% Pennicilin-streptomycin • c) 100 μg/ml Geneticin/G418 • 2. […] Immediately add 15 ml Cell Culture medium to inactivate trypsin and mix well. […] (eg. 1×T175 flask can seed 20×T175 flasks) • g) Incubate cells at 37° C., 5% CO2, in a humidified incubator. NOTE: Cells will grow to confluence within 3-4 days.
(§2) Cells are resuspended in 3 volumes of 50 mM Tris-HC1 (pH 7.4) to 1 volume of initial cell fraction • 2. Partially homogenize cells by swirling or by using transfer pipetor to make cell solution more homogenous and aliquot solution into 4 clear 50 ml polypropylene centrifuge tubes • 3. Tubes are balanced and spun down at 2,000 rpm for 10 minutes at 4° C. using the HS-4 rotor (rotor code 8) • 4. Supernatant is decanted and pellets resuspend in an additional 75 ml of 50 mM Tris-HCl (pH 7.4)→˜18 ml Tris to each of 4 tubes • 5. Spin cells again at 5, 000 rpm for minutes at 4° C. using the HS-4 rotor and decant supernatant • 6. Resuspend final pellts in appropriate volume of 50 nM Tris to yield protein concentration of ˜6 mg/ml • add 100 ml Tris to original cell suspension of 35 ml • add ˜72 ml; Tris to original cell suspension of 25 ml • 7. Add the appropriate final volume and split the cells into two/three 50 ml Falcon polypropylene tubes. Thoroughly vortex your cell suspension in these tubes to ensure homogeneity before aliquoting. • 8. Pool the samples from the 50 nl tubes into one larger flat-bottom vessel and stir constantly on ice (4° C.). • 9. While stirring, aliquot 1 ml portions out into 1.5 ml cryogenic vials. • 10. Store vials at −70° C. until subsequtn asay. Retain one aliquot for protein concentration, Kd and Bmax determination before starting experiments using new batch of cells. Proetin concentration is determined using the Lowry method.
(§3) Required buffers: • Assay buffer; 50 mM Tris HCl, 120 mM NaCl and 5 mM KCl, pH 7.4 • 2. Binding protocol: Preliminary screening assays are performed using single replicates on duplicate plates. Dose-response binding assays are performed in a single replicates on duplicate OptiPlates (Perkin Elmer) using 0.1 nM to 3 μM of test drug.
(§4) a) To each well add 10 μL of test compound, blank compound (10 μM Fluoxetine), or assay buffer (50 mM Tris HCl, 120 mM NaCl and 5 mM KCl, pH 7.4. Each well is then supplemented with 40 μL of assay buffer.
(§5) The isotope solution is also disuted in 50 mM Tris HCl, 120 mM NaCl and 5 mM KCl, pH 7.4 • c) Resuspend membrane pellet in binding buffer to achieve a solution containing 5 μg of protein in 50 μL. This will yield a final protein concentration of 5 μg/well. • d) To each well add 0.5 mg of Wheatgerm Agglutinin (WGA) SPA beads in 50 μl of 50 mM Tris HCl, 120 mM NaCl and 5 mM KCl, pH 7.4 • e) Incubate plates, while gently shaking, for at least 1 hour so as to reach equilibrium. Plates can still be read if left to incubate overnight without loss of signal. • f) Count plates on TopCount.
(§6) 3H-Citallopram binding is expressed as percent of specific binding, with IC50 and Ki VALUES DETERMINED BY nonlinear regression analysis using the Activity Base software package. Specific binding is defined as total binding observed in the presence of 10 μM fluoxetine.

[3] = target: T3, serotonin transporter (Rattus norvegicus, UniProt P31652); experiment: Displacement of 3H-paroxetine from male rat frontal cortical membranes (serotonin transporter affinity); assay type: binding; conditions: 3H-paroxetine displacement, read-out: 5-HT Transporter Affinity Ki
T3 construct: displace ^3H-paroxetine from male rat frontal cortical membranes; from tissue; host or cells: male rat frontal cortex membranes
Source text: Affinity of Compounds of the Invention for the Serotonin Transporter

[4] = target: T4, human 5HT1A receptors (Homo sapiens, UniProt P08908); experiment: Displacement of [3H] 8-OH-DPAT from 5HT1A receptor, CHO cells stably transfected with human 5HT1A receptors; assay type: binding; conditions: [3H] 8-OH-DPAT displacement, CHO cells with human 5HT1A; read-out: 5HT1A Receptor Affinity Ki
T4 construct: expressed in transfected cells; host or cells: CHO cells
T4 sequence (P08908 1-422): T1 sequence (P08908 1-422)
Source text: High affinity for the serotonin 5HT1A receptor was established by testing the claimed compound's ability to displace [^3H] 8-OH-DPAT (dipropylamino-tetralin) from the 5HT1A serotonin receptor following a modification of the procedure of Hall et al., J. Neurochem. 44, 1685 (1985) which utilizes CHO cells stably transfected with human 5HT1A receptors.

[5] = target: T5, cloned human 5HT1A receptors (Homo sapiens, UniProt P08908); experiment: 35S-GTPγS binding assay, agonist/antagonist activity at 5HT1A receptors; assay type: biochemical
T5 construct: expressed in transfected cells
T5 sequence (P08908 1-422): T1 sequence (P08908 1-422)
Procedure: Determination of […] or Antagonist Activity at 5HT1A Receptors
Antagonist or antagonist activity at 5HT1A receptors was established by using a ^35S-GTPγS binding assay similar to that used by Lazareno and Birdsall (Br. J. Pharmacol. 109: 1120, 1993), in which the test compound's ability to affect the binding of ^35S-GTPγS to membranes containing cloned human 5HT1A receptors was determined. Agonists produce an increase in binding whereas antagonists produce no increase but rather reverse the effects of the standard agonist 8-OH-DPAT. The test compound's maximum inhibitory effect is represented as the Imax, while its potency is defined by the IC50. The results of the three standard experimental test procedures described in the preceding three paragraphs were as follows: […]

[6] = target: T2, Human Serotonin Transporter (h5HT-T); experiment: biochemical
Procedure: as §1, §2, §3, §4, §5, §6

T2 sequence (P31645 whole entry): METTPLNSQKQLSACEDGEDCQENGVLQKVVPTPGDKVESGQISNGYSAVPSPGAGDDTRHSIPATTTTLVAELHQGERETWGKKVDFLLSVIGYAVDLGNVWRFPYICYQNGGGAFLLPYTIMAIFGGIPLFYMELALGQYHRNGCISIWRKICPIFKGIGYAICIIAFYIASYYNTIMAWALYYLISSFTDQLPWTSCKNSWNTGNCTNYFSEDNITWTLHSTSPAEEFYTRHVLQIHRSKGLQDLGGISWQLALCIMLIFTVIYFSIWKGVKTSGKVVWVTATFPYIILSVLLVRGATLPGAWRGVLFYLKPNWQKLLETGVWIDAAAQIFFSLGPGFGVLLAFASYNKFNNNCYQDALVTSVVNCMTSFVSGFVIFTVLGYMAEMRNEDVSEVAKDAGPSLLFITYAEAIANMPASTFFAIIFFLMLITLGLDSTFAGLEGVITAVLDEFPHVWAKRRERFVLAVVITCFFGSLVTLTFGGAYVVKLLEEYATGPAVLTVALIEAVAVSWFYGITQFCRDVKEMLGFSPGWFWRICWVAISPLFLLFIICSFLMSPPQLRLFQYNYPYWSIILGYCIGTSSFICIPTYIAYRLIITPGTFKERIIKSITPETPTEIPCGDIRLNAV
T3 sequence (P31652 whole entry): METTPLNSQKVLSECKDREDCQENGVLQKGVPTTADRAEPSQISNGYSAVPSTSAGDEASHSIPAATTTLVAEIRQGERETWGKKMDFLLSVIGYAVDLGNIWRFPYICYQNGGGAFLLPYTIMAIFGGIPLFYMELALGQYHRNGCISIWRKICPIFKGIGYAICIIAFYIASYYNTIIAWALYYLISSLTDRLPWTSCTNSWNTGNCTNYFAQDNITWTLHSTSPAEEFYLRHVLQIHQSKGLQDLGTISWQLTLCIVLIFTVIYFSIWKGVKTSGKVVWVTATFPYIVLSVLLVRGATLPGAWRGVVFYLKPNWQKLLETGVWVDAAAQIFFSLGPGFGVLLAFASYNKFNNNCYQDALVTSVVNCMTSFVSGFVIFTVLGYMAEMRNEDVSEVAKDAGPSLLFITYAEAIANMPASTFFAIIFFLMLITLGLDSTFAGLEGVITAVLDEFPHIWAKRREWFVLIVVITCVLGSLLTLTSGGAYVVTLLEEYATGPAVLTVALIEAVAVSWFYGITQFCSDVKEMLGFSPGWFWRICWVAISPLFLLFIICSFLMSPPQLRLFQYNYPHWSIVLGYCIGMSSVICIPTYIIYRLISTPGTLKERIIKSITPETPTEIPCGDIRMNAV

Row | Ki [1] | Ki [3] | Ki [4] | Ki [6] | Compound | other results
1 |  | 9.5 nM | 0.26 nM |  | Cc1ccc2c3c(ccc2n1)OC[C@H](CN1CCC(Oc2ccc4c(c2)NC(=O)CO4)CC1)O3 [Example 1, 6-[(1-{[(2S)-8-methyl-2,3-dihydro[1,4]dioxino[2,3-f]quinolin-2-yl]methyl}piperidin-4-yl)oxy]-2H-1,4-benzoxazin-3(4H)-one dihydrochloride salt] | IC50 ([5]; reversal of 8-OH-DPAT effect, read-out: 5HT1A Function IC50): 59.3 nM; 5HT1A Function Imax (maximum inhibitory effect) ([5]; value in parentheses): 97
2 |  | 13.9 nM | 0.63 nM |  | Cc1ccc2c3c(ccc2n1)OC[C@H](CN1CCC(CCc2ccc4c(c2)N(C)C(=O)CO4)CC1)O3 [Example 13, 4-Methyl-6-[2-(1-{[(2S)-8-methyl-2,3-dihydro[1,4]dioxino[2,3-f]quinolin-2-yl]methyl}piperidin-4-yl)ethyl]-2H-1,4-benzoxazin-3(4H)-one dihydrochloride salt] | 
3 |  | 2.66 nM | 0.59 nM |  | Cc1ccc2c3c(ccc2n1)OC[C@H](CN1CCC(CCc2ccc4c(c2)NC(=O)CO4)CC1)O3 [Example 14, 6-[2-(1-{[(2S)-8-Methyl-2,3-dihydro[1,4]dioxino[2,3-f]quinolin-2-yl]methyl}piperidin-4-yl)ethyl]-2H-1,4-benzoxazin-3(4H)-one dihydrochloride salt] | 
4 |  | 82 nM | 0.68 nM |  | Cc1ccc2c3c(ccc2n1)OC[C@H](CN1CCCC(Cc2ccc4c(c2)N(C)C(=O)CO4)C1)O3 (stereo partly drawn) [Example 15, 4-Methyl-6-[(1-{[(2S)-8-methyl-2,3-dihydro[1,4]dioxino[2,3-f]quinolin-2-yl]methyl}piperidin-3-yl)methyl]-2H-1,4-benzoxazin-3(4H)-one dihydrochloride salt] | 
5 |  | 5 nM | 0.4 nM |  | Cc1ccc2c3c(ccc2n1)OC[C@H](CN1CCCC(Cc2ccc4c(c2)NC(=O)CO4)C1)O3 (stereo partly drawn) [Example 16, 6-[(1-{[(2S)-8-Methyl-2,3-dihydro[1,4]dioxino[2,3-f]quinolin-2-yl]methyl}piperidin-3-yl)methyl]-2H-1,4-benzoxazin-3(4H)-one dihydrochloride salt] | 
6 |  | 38.1 nM | 0.28 nM |  | Cc1ccc2c3c(ccc2n1)OC[C@H](CN1CCC(Oc2ccc4c(c2)NC(=O)CC4)CC1)O3 [Example 17, 7-[(1-{[(2S)-8-Methyl-2,3-dihydro[1,4]dioxino[2,3-f]quinolin-2-yl]methyl}piperidin-4-yl)oxy]-3,4-dihydroquinolin-2(1H)-one dihydrochloride salt] | 
7 |  | 35.2 nM | 0.93 nM |  | Cc1ccc2c3c(ccc2n1)OC[C@H](CNC1CCN(c2ccc4c(c2)NC(=O)CO4)CC1)O3 [Example 18, 6-(4-{[(8-methyl-2,3-dihydro[1,4]dioxino[2,3-f]quinolin-2-yl)methyl]amino}piperidin-1-yl)-2H-1,4-benzoxazin-3(4H)-one dihydrochloride salt] | 
8 | 1.15 nM |  |  | 5.88 nM | Cc1ccc2c3c(ccc2n1)OC[C@H](CN1CCC(Cc2ccc4c(c2)NC(=O)CC4)CC1)O3 [Example 20, 7-[(1-{[(2S)-8-Methyl-2,3-dihydro[1,4]dioxino[2,3-f]quinolin-2yl]methyl}piperidin-4-yl)methyl]-3,4-dihydroquinolin-2(1H)-one] | 
9 | 2.33 nM |  |  | 9.77 nM | Cc1ccc2c3c(ccc2n1)OC[C@H](CN1CCCC(Cc2ccc4c(c2)NC(=O)CC4)C1)O3 (stereo partly drawn) [Example 24, 7-[(1-{[(2S)-8-Methyl-2,3-dihydro[1,4]dioxino[2,3-f]quinolin-2-yl]methyl}piperidin-3-yl)methyl]-3,4-dihydroquinolin-2(1H)-one] | 
10 | 13.8 nM |  |  | 146 nM | Cc1ccc2c3c(ccc2n1)OC[C@H](CN1CCC[C@@H](Oc2ccc4c(c2)NC(=O)CO4)C1)O3 [Example 25, 6-{[(3R)-1-{[(2S)-8-Methyl-2,3-dihydro[1,4]dioxino[2,3-f]quinolin-2-yl]methyl}piperidin-3-yl]oxy}-2H-1,4-benzoxazin-3(4H)-one] | 
11 | 361 nM |  |  | 376 nM | Cc1ccc2c3c(ccc2n1)OC[C@H](CN1CCC[C@H](Oc2ccc4c(c2)NC(=O)CO4)C1)O3 [Example 26, 6-{[(3S)-1-{[(2S)-8-Methyl-2,3-dihydro[1,4]dioxino[2,3-f]quinolin-2-yl]methyl}piperidin-3-yl]oxy}-2H-1,4-benzoxazin-3(4H)-one] | 

Row | Compound | Ki [1] | Ki [3] | Ki [4] | Ki [6] | other results
12 | 8-Fluoro-6-[(1-{[(2S)-8-methyl-2,3-dihydro[1,4]dioxino[2,3-f]quinolin-2-yl]methyl}piperidin-4-yl)methyl]-2H-1,4-benzoxazin-3(4H)-one [Example 21a] | 15.5 nM |  |  |  | Ki [2]: 68.2 nM
13 | 8-Fluoro-6-[(1-{[(2S)-8-methyl-2,3-dihydro[1,4]dioxino[2,3-f]quinolin-2-yl]methyl}piperidin-4-yl)methyl]-2H-1,4-benzoxazin-3(4H)-one [Example 21b] | 1.12 nM |  |  |  | Ki [2]: 1.74 nM
14 | Cc1ccc2c3c(ccc2n1)OC[C@H](CN1C2CCC1CC(Cc1ccc4c(c1)NC(=O)CC4)C2)O3 (stereo partly drawn) [Example 23, 7-[(8-{[(2S)-8-Methyl-2,3-dihydro[1,4]dioxino[2,3-f]quinolin-2-yl]methyl}-8-azabicyclo[3.2.1]oct-3-yl)methyl]-3,4-dihydroquinolin-2(1H)-one] | 2.42 nM |  |  | 12.4 nM | 
